Patent US20050203119A1, “Dihydropyridine compounds for treating or preventing metabolic disorders” (priority 2003, published 2005)

Experiments:
[1] = test system: male db/db mice (BKS.Cg-m+/+Lepr db/J); experiment: Intraperitoneal glucose tolerance test (IPGTT) in db/db mice (Example 122, FIGS. 3 and 5); type: in vivo, mouse; conditions: IPGTT
Description: Six to eight week old, male db/db mice (BKS.Cg-m+/+Lepr^db/J; stock number 000642), homozygous for a mutation in the gene encoding the leptin receptor, were purchased from The Jackson Laboratory (Bar Harbor, Me. USA). Animals were singly housed in conventional caging on a 12 hr/12 hr light/dark cycle, acclimated for at least five days prior to use and fed normal laboratory chow ad libitum between experiments. Studies were conducted with animals between seven and fourteen weeks of age. Animals were used for a maximum of five consecutive studies, with a minimum recovery period of five days between studies.
To perform an IPGTT or OGTT, db/db mice were fasted overnight beginning on day 0 at −17.5 to −18.5 hrs relative to the glucose dose on day 1 (all time points below are stated relative to the time of an intraperitoneal or oral glucose dose on day 1). At −4.5 hrs, animals were weighed, blood was collected by tail vein lancing and fasted blood glucose levels determined using a hand-held glucometer (MediSense Precision Xtra or LifeScan OneTouch Ultra). Animals were randomized into dosing groups of 6-7 animals, with each group having a similar average fasted blood glucose level. At −3 hr, animals were dosed with vehicle alone, a test compound or metformin by oral gavage at 5 ml/kg body weight. […] Blood glucose levels were determined as above at −45 min and +45 min, and also +90 min and/or +150 min (see FIG. 3 and the Table in this section). Alternatively, blood glucose levels were determined at −30 min, +30 min, +60 min and +120 min (see FIGS. 4 and 5).
Compound doses were adjusted to be the molar equivalents of 50 mg/kg of Compound 39. The percent change in blood glucose between −45 min and a time point, y, after glucose dosing (e.g., +45 min, +150 min, ect.) was calculated for each animal using formula 1: [formula]
The percent change in blood glucose between −45 min and a time point, y, after glucose dosing was calculated for each animal using formula 1.
Average percent change in glucose intolerance was calculated using Formula 2, as noted in the table below. […]

[2] = test system: Male ZDF rats (ZDF/GmiCrl-fa/fa); experiment: Seven day baseline glucose study in fed ZDF rats (Example 124, FIG. 9); type: in vivo, rat; conditions: oral once daily 7 days
Description: To determine the effect of a test compound on blood glucose levels in fed and fasted diabetic rats, a 7DBG study was conducted, followed immediately by an 8th day of dosing and an OGTT study on the same animals. Male ZDF rats (ZDF/GmiCrl-fa/fa), homozygous for a mutation in the gene encoding the leptin receptor, were purchased from Charles River Laboratories (Wilmington, Mass., USA). Animals were individually housed in clear polycarbonate cages (contact bedding) on a 12 hr/12 hr light/dark cycle, acclimated for at least one week prior to use and fed normal laboratory chow (Purina No. 5008) ad libitum. Studies were conducted with animals starting between eleven and twelve weeks of age. Animals were used for a single study before being replaced.
To perform a 7DBG plus OGTT study, animals were bled by tail vein lancing on day 0, 24 hrs prior to the first drug dose on day 1, and blood glucose levels were measured by a hand-held glucometer. Animals were randomized into dosing groups of 6 animals, with each group having a similar starting average glucose level. […] Blood glucose levels were determined daily using a hand-held glucometer 3 hrs after the first dose on days 1 through 7.
The serum glucose levels on days 3 or 7 as a percent of the serum glucose levels on day 0 for individual animals in each group (6 rats/group), were calculated using Formula 3. […]

Lepr db mice = experiment: Oral glucose tolerance test in Lepr db mice (Example 120); type: in vivo, mouse
Description: Compound 39 (25, 50 and 100 mg/kg) and vehicle (0.5% Methylcellulose) were administered orally at one hour before glucose loading (2 g/kg, PO) to Lepr db mice fasted for about 4 hours. Blood samples were collected sequentially from the retro-orbital sinus at pre-treatment one day before and about 1 and about 2 hours after glucose loading. Serum glucose values were obtained at about 1 and about 2 hours after glucose loading, percentage reductions were expressed as percentage of corresponding vehicle control values and unpaired Student's t test was then applied for comparison between test substance and vehicle group. Differences are considered significant at P<0.05 level.

[3] = test system: NIDDM male mice (C57BLKS/J-m+/+Lepr db); experiment: 7 day baseline glucose test in db/db mice (Example 119); type: in vivo, mouse; conditions: for Serum Glucose % Pre-Treatment Baseline: 3 hours after dose
Description: Non-insulin dependent diabetic mellitus (NIDDM) male mice (C57BLKS/J-m+/+Lepr db), weighing 50±5 g and 9-10-week old, were used. The animals were housed in Individually Ventilated Cages Racks (IVC Racks) throughout the experiment and all animals were allowed free access to sterilized Lab chow and sterilized distilled water. Compounds 39, 41 and 64 at 50 mg/kg as well as vehicle (0.5% Methylcellulose) were administered orally once daily for 7 consecutive days to test animals after the first blood sampling (pre-treatment). The post-treatment blood samples were withdrawn from the orbital sinus at 3 hours after administration of daily dose on day 3 and on day 7. Serum glucose levels in the pre- and post-treatment were determined by enzymatic (Mutaratase-GOD) methods. Post-treatment serum glucose values were expressed in percentage of respective pre-treatment values. Percentage reductions were expressed in percentage of pre-treatment values of test substance relative to percentage of pre-treatment values of vehicle. All percentages were calculated and unpaired; Student's t test was then applied to establish significant difference between the test compound-treated and vehicle control groups. Differences are considered significant at P<0.05.

Male SD rats = conditions: rat, in vivo
Description: Male SD rats weighing 350-420 g were anesthetized with 2-3% isoflurane. The femoral artery and vein were catheterized and connected to a mean arterial blood pressure (MAP) and heart rate (HR) monitor and a continuous intravenous infusion pump. Under anesthesia, MAP and HR were recorded 10-20 minutes prior to and during the continuous intravenous infusion of test compounds for 60-70 minutes. The infusion rate, 0.14-0.16 ml/kg/minute, was determined on the basis of vehicle tolerance. The infusion doses, 1.0-1.25 mg/kg/minute, were selected, depending upon the solubility of the compound and effects on MAP and HR of the positive control compounds at the lethal dose. The maximal effective dose or lethal dose of test compounds were determined accordingly.

[4] = test system: Male ZDF rats (ZDF/GmiCrl-fa/fa); experiment: Oral glucose tolerance test in fasted ZDF rats after 8 days of dosing (Example 124, FIG. 10); type: in vivo, rat; conditions: OGTT
Description: Male ZDF rats (ZDF/GmiCrl-fa/fa), homozygous for a mutation in the gene encoding the leptin receptor, were purchased from Charles River Laboratories (Wilmington, Mass., USA). Animals were individually housed in clear polycarbonate cages (contact bedding) on a 12 hr/12 hr light/dark cycle, acclimated for at least one week prior to use and fed normal laboratory chow (Purina No. 5008) ad libitum. Studies were conducted with animals starting between eleven and twelve weeks of age. Animals were used for a single study before being replaced. […] As noted above, animals were dosed on day 8 on the same schedule as was used for days 1 through 7 of the 7DBG study. […] Serum glucose levels were determined using a laboratory analyzer. […] This may be due to the dose of metformin (250 mg/kg) that was used, which may be too high to observe any synergy between the two compounds. […] The indicated time points are relative to the oral glucose dose.

[5] = Day 3, 50 mg/kg orally once daily
[6] = Day 7, 50 mg/kg orally once daily

Structure (SMILES): CCOC(=O)C1=C(COCCN)NC2=C(C(=O)CC(C)(C)C2)C1c1cccnc1 (centres unmarked) [Compound 39, 2-(2-Amino-ethoxymethyl)-7,7-dimethyl-5-oxo-4-pyridin-3-yl-1,4,5,6,7,8-hexahydro-quinoline-3-carboxylic acid ethyl ester]
- glucose intolerance relative to vehicle-treated animals (FIG. 5) ([1]; Compound 39 orally dosed alone): decreased
- effect of metformin on glucose intolerance in combination with Compound 39 (FIG. 5) ([1]; Compound 39 orally in combination with metformin): enhanced
- glucose lowering activities of metformin in combination with Compound 39 (FIG. 9) [2]: enhanced
- serum glucose (FIG. 9) ([2]; Compound 39 alone): decreased serum glucose
- Serum Glucose (Lepr db mice; 0 hr (pre-treatment one day before), 25 mg/kg group): 375.9 ± 16.3 mg/dL
- Serum Glucose (Lepr db mice; 0 hr (pre-treatment one day before), 50 mg/kg group): 371.1 ± 15.2 mg/dL
- Serum Glucose (Lepr db mice; 0 hr (pre-treatment one day before), 100 mg/kg group): 340.7 ± 14.2 mg/dL
- Serum Glucose (Lepr db mice; 1 hr after glucose loading (2 g/kg PO), 25 mg/kg orally): 379.3 ± 18.5 mg/dL
- Serum Glucose (Lepr db mice; 1 hr after glucose loading (2 g/kg PO), 50 mg/kg orally): 415.6 ± 11.0 mg/dL
- Serum Glucose (Lepr db mice; 1 hr after glucose loading (2 g/kg PO), 100 mg/kg orally): 366.2 ± 17.3 mg/dL
- serum glucose % Reduction relative to vehicle (Lepr db mice; 1 hr after glucose loading, 25 mg/kg orally): (19.3) %
- serum glucose % Reduction relative to vehicle (Lepr db mice; 1 hr after glucose loading, 50 mg/kg orally): (11.6) %
- serum glucose % Reduction relative to vehicle (Lepr db mice; 1 hr after glucose loading, 100 mg/kg orally): (22.1) %
- Serum Glucose (Lepr db mice; 2 hr after glucose loading (2 g/kg PO), 25 mg/kg orally): 331.1 ± 14.5 mg/dL
- Serum Glucose (Lepr db mice; 2 hr after glucose loading (2 g/kg PO), 50 mg/kg orally): 346 ± 16.8 mg/dL
- Serum Glucose (Lepr db mice; 2 hr after glucose loading (2 g/kg PO), 100 mg/kg orally): 301.3 ± 28.4 mg/dL
- serum glucose % Reduction relative to vehicle (Lepr db mice; 2 hr after glucose loading, 25 mg/kg orally): (11.8) %
- serum glucose % Reduction relative to vehicle (Lepr db mice; 2 hr after glucose loading, 50 mg/kg orally): (7.8) %
- serum glucose % Reduction relative to vehicle (Lepr db mice; 2 hr after glucose loading, 100 mg/kg orally): (19.7) %
- serum glucose % Reduction relative to vehicle [3, 5]: (3) %
- Serum Glucose % Pre-Treatment Baseline [3, 5]: 98.5%
- serum glucose % Reduction relative to vehicle [3, 6]: (18) %
- Serum Glucose % Pre-Treatment Baseline [3, 6]: 82.3%
- Lethal Dose (Male SD rats): >70 mg/kg
- glucose intolerance relative to vehicle-treated animals (FIG. 10) ([4]; after daily oral dosing for 8 days): decreased
- effect of metformin on glucose tolerance in combination with Compound 39 (FIG. 10) ([4]; metformin 250 mg/kg): did not appear to enhance
